The record followed here is ChEMBL document CHEMBL1201862, “PubChem BioAssay data set” (2004).

Common to all, as to experiment: growth of human tumour cells (NCI), 48 h
Assay [1] deals with OVCAR-5.
Assay [2] concerns SNB-19.
The subject of assay [3] is SNB-75.
In assay [4] the test system is SF-539.
For assay [5], the system named is UACC-257.
Assay [6] concerns LOX IMVI.
Assay [7] concerns UACC-62.
For assay [8], the system named is RPMI-8226.
For assay [9], the system named is SF-268.
The subject of assay [10] is 786-0.
The test system of assay [11] is NCI-H460.
Assay [12] concerns TK-10.
The test system of assay [13] is NCI-H226.
Assay [14] concerns SK-OV-3.
Assay [15] concerns HCC 2998.
For assay [16], the system named is SK-MEL-5.
Assay [17] relates to OVCAR-8.

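Growth conditions: 96-well plates. Treatment: test compound, 48 hours, 5 concentrations. Analysis: linear interpolation between bracketing concentrations; unreached endpoints set to highest concentration. Here, GI50 denotes the concentration required for 50% inhibition of growth.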 Calls of active or inactive are those of the source. Cut-off read from the data, not from the text of the source: active = GI50 up to about 1.1 µM and inactive = higher.

Take `Nc1nnc(NC(=O)C2=NS(=O)(=O)c3cc(S(N)(=O)=O)c(Cl)cc3N2)[nH]1`: the GI50 in [1], in assay [2], in assay [3], in assay [4], in [5] and in assay [6] was > 100 µM (inactive) each time. Moreover, the GI50 in assay [7], in assay [8], in assay [9], in [10], in [11] and in assay [12] was > 100 µM (inactive) each time. The GI50 in assay [13] is > 100 µM (inactive); in assay [14], > 100 µM (inactive); in assay [15] it was 0.752 µM (active); in assay [16] it was > 100 µM (inactive).
On to `O=C(CCc1cc(-c2ccc(F)cc2)n[nH]1)N(Cc1ccccc1)Cc1ccccc1`, for which the GI50 in assay [1], in assay [2], in [3], in [4], in assay [5] and in [6] was > 100 µM (inactive) in each case. In addition, the GI50 in assay [7], in assay [8], in assay [9], in assay [10], in assay [11] and in [12] was > 100 µM (inactive) each time. Further, the GI50 in assay [13], in [14], in [17], in assay [15] and in assay [16] was > 100 µM (inactive) throughout.
As for `O=C(Cn1ccnc1[N+](=O)[O-])c1ccccc1`, the GI50 in assay [1], in assay [2], in assay [3], in assay [4], in [5] and in assay [6] was > 100 µM (inactive) throughout. Moreover, the GI50 in assay [7], in [8], in assay [9], in assay [10], in assay [11] and in [12] was > 100 µM (inactive) each time. In addition, the GI50 in [13], in assay [14], in assay [17], in [15] and in assay [16] was > 100 µM (inactive) in each case.
For the compound `Cc1cccc(C2=NC(C)(C)C(C)(C)N=C2c2cccc(C)n2)n1`, the GI50 in assay [1] was > 100 µM (inactive); in assay [2] it was > 100 µM (inactive); in assay [3], > 100 µM (inactive); in assay [4] it was > 100 µM (inactive); in assay [5] it was 45.4 µM (inactive); in assay [6], > 100 µM (inactive). Moreover, the GI50 was > 100 µM (inactive) in [7]; 34.6 µM (inactive) in assay [8]; > 100 µM (inactive) in assay [9]; > 100 µM (inactive) in [10]; > 100 µM (inactive) in assay [11]; > 100 µM (inactive) in [12]. The GI50 in [13], in [14], in [17], in assay [15] and in [16] was > 100 µM (inactive) throughout.
With `CCOC(=O)C1=C(C)C2C3C(=O)NC(=O)C3C1(C)C1C(=O)NC(=O)C21` (stereo not given), the GI50 in [2], in [3], in assay [4], in assay [5], in assay [6] and in assay [7] was > 100 µM (inactive) in each case. The GI50 in assay [8] was > 100 µM (inactive); in assay [9], > 100 µM (inactive); in assay [10] it was > 100 µM (inactive); in [11] it was > 100 µM (inactive); in assay [12], > 100 µM (inactive); in assay [13], < 0.01 µM (active). For the same compound, the GI50 in assay [14], in assay [17], in [15] and in assay [16] was > 100 µM (inactive) each time.
On to `NNC(=S)N/N=C/C(=C/Nc1ccccc1)[N+](=O)[O-]`, for which the GI50 in assay [1], in [2], in [3], in [4], in [5] and in [6] was > 100 µM (inactive) in each case. Besides, the GI50 in assay [7], in assay [8], in assay [9], in assay [10], in [12] and in [13] was > 100 µM (inactive) each time. Further, the GI50 in [14], in assay [17] and in assay [15] was > 100 µM (inactive) throughout.
In the case of `COC1=C(C(=O)OC(C)(C)C)C23CCCCC2(C(C(=O)OC(C)(C)C)=C(OC)C3C(=O)OC(C)(C)C)C1C(=O)OC(C)(C)C` (stereo not given), the GI50 in [1] is > 100 µM (inactive); in [2] it was > 100 µM (inactive); in assay [3] it was 84.5 µM (inactive); in assay [4], 48.3 µM (inactive); in assay [5] it was 6.1 µM (inactive); in assay [6], 34.4 µM (inactive). In addition, the GI50 is 54.8 µM (inactive) in [7]; 8.47 µM (inactive) in assay [8]; > 100 µM (inactive) in assay [9]; > 100 µM (inactive) in [10]; 11.5 µM (inactive) in assay [11]; > 100 µM (inactive) in assay [12]. For the same compound, the GI50 in assay [13] was 42.7 µM (inactive); in assay [14], > 100 µM (inactive); in assay [17] it was 59.6 µM (inactive); in assay [15] it was 53.6 µM (inactive); in [16], 12.4 µM (inactive).
On to `COc1c(C)c2c(c3c1c(=O)c1ccccc1n3C)C=CC(C)(C)O2`, for which the GI50 is 29.2 µM (inactive) in [1]; 41.3 µM (inactive) in assay [2]; 20.4 µM (inactive) in assay [3]; 19.3 µM (inactive) in assay [4]; 28.9 µM (inactive) in assay [5]; 15.2 µM (inactive) in assay [6]. Further, the GI50 in [7] is 14.4 µM (inactive); in assay [8] it was 9.02 µM (inactive); in assay [9], 26.4 µM (inactive); in [10], 23.4 µM (inactive); in assay [11] it was 18.7 µM (inactive); in [12] it was 48.3 µM (inactive). The GI50 was 36.7 µM (inactive) in assay [13]; 12.7 µM (inactive) in assay [14]; 25.6 µM (inactive) in [17]; 28.4 µM (inactive) in assay [15]; 15.3 µM (inactive) in assay [16].
As to `COc1ccc(C(C)Nc2cc(OC)c(OC)c(OC)c2)cc1` (stereo not given), the GI50 in assay [1] was 29.5 µM (inactive); in assay [2] it was > 25.2 µM (inactive); in assay [3] it was 5.75 µM (inactive); in assay [4], 3.1 µM (inactive); in [5] it was 3.27 µM (inactive); in assay [6] it was 10.9 µM (inactive). For the same compound, the GI50 was 2.91 µM (inactive) in [7]; 3.86 µM (inactive) in [8]; 2.9 µM (inactive) in assay [9]; 6.65 µM (inactive) in assay [10]; 3.03 µM (inactive) in assay [11]; > 29.7 µM (inactive) in assay [12]. For the same compound, the GI50 in assay [13] is 14.8 µM (inactive); in assay [14], 4.4 µM (inactive); in [17] it was 7.16 µM (inactive); in assay [15], 10.3 µM (inactive); in [16], 2.54 µM (inactive).
In the case of `CCC(/C(=N\Nc1c(Cl)cc(Cl)cc1Cl)c1ccccc1)n1ccnc1C` (stereo not given), the GI50 in [1] was 9.04 µM (inactive); in [2], 14.4 µM (inactive); in assay [3], 14.6 µM (inactive); in assay [4], 16.2 µM (inactive); in assay [5], 14.5 µM (inactive); in [6], 12.2 µM (inactive). The GI50 was 17.5 µM (inactive) in assay [7]; 3.99 µM (inactive) in assay [8]; 17.2 µM (inactive) in [9]; 11.7 µM (inactive) in [10]; 11 µM (inactive) in assay [11]; 14.3 µM (inactive) in assay [12]. Moreover, the GI50 in assay [13] was 15.2 µM (inactive); in [14], 18.4 µM (inactive); in [17], 12.9 µM (inactive); in [15], 3.66 µM (inactive); in assay [16], 7.91 µM (inactive).
Consider `N#CCCN(CCC#N)c1ccc(C(Sc2ccccc2)C(NC(=O)c2cc([N+](=O)[O-])ccc2Cl)C(=O)Sc2ccccc2)cc1` (stereo not given), for which the GI50 is 4.38 µM (inactive) in assay [1]; 3.54 µM (inactive) in [2]; 5.41 µM (inactive) in assay [3]; 1.8 µM (inactive) in assay [4]; 8.07 µM (inactive) in assay [5]; 1.91 µM (inactive) in assay [6]. Besides, the GI50 is 1.68 µM (inactive) in assay [7]; 1.77 µM (inactive) in assay [8]; 2.35 µM (inactive) in assay [9]; 1.89 µM (inactive) in assay [10]; 4.41 µM (inactive) in assay [11]; 7.28 µM (inactive) in [12]. The GI50 is 2.02 µM (inactive) in assay [13]; 5.42 µM (inactive) in assay [14]; 1.96 µM (inactive) in [17]; 6.65 µM (inactive) in assay [15]; 3.27 µM (inactive) in assay [16].
For the compound `O=C(O)CCC(=O)OCN1C(=O)C2C3C=CC(C2C1=O)C1C2C(=O)N(COC(=O)CCC(=O)O)C(=O)C2C31` (stereo not given), the GI50 is > 100 µM (inactive) in [1]; > 100 µM (inactive) in assay [2]; > 95.7 µM (inactive) in assay [3]; > 100 µM (inactive) in [4]; > 100 µM (inactive) in [5]; > 45.5 µM (inactive) in [6]. The GI50 is > 100 µM (inactive) in [7]; 21.4 µM (inactive) in [8]; > 78.9 µM (inactive) in [9]; > 62.7 µM (inactive) in assay [10]; 32.5 µM (inactive) in assay [11]; > 100 µM (inactive) in assay [12]. Also, the GI50 in assay [13] was > 100 µM (inactive); in [14] it was > 100 µM (inactive); in assay [17], 56.9 µM (inactive); in [15], > 100 µM (inactive); in assay [16], > 100 µM (inactive).
